Results reported in US20250269018A1, “COMBINED CANCER THERAPY WITH AN EPITHELIAL CELL ADHESION MOLECULE (EPCAM) INHIBITOR AND A HEPATOCYTE GROWTH FACTOR RECEPTOR (HGFR) INHIBITOR” (ACADEMIA SINICA, priority 2021, published 2025).

Tested on: GSK3β, active β-catenin and Snail
Test: Western blotting of GSK3β, active β-catenin, Snail and EMT proteins in HCT116 cells
Assay type: cell-based, human
Conditions: HCT116
Description: FIGS. 4A to 4L. EpEX induces EMT and invasion by stabilizing β-catenin and Snail through decreasing GSK3β activity. (FIG. 4A) The protein expression of EMT markers and regulators was detected by Western blotting in Wild-type (WT) or EpCAM knockout (KO) HCT116 cells after EpEX treatment. (FIG. 4B) Cell invasion was examined by Transwell chamber assay with matrigel. (FIG. 4C) WT or KO HCT116 and HT29 cells were starved for 16 h, then treated with 0.5 nM of HGF with 2% FBS for 24 h. EMT-related protein expression (E-cadherin, vimentin, and Snail) was examined by Western blotting. (FIG. 4D) WT or KO HCT116 and HT29 cells were treated with HGF (0.5 nM) for 24 h. Invasion by HCT116 and HT29 cells was examined by Transwell chamber assay with matrigel. (FIG. 4E) HCT116 and HT29 cells were starved for 16 h, then treated with 0.5 nM of HGF with 2% FBS for 24 h. EMT-related protein expression (E-cadherin, Vimentin, and Snail) was examined by Western blotting. (FIG. 4F) HCT116 and HT29 cells were starved for 16 h, then treated with 0.5 nM of HGF with 2% FBS for 24 h. Cell invasion was assessed by a Transwell assay with matrigel. (FIG. 4G) HCT116 cells after shLuc and shHGFR treatment were treated with 50 nM of EpEX-His. HCT116 cells after shLuc and shHGFR treatment were treated with 50 nM of EpEX-His with 2% FBS for 24 h. EMT-related protein expression (E-cadherin, Vimentin, and Snail) was examined by Western blotting. (FIG. 4H) Cell invasion was examined by Transwell chamber assay with matrigel. (FIG. 4I) Starved HCT116 cells were treated SU (10 μM) for 1 h, followed by treatment with EpEX-His (50 nM) for 24 h. Phosphorylated GSK3β, active-β-catenin, and Snail were detected by Western blotting. (FIG. 4J) HCT116 cells were starved for 16 h, then treated with 50 nM EpEX-His for 24 min. AKT inhibitor LY294002 (25 μM), ERK inhibitor U0126 (20 μM), or PF-562271 (10 μM) were applied 1 h before EpEX treatment. Protein expression of phosphorylated GSK3β and Snail was examined by Western blotting. (FIG. 4K) HCT116 cells were starved for 16 h, then treated with 50 nM EpEX, and SU (10 μM), LY (25 μM), UO (20 μM) or PF (10 μM). Cell invasion was examined by Transwell chamber assay with matrigel. (FIG. 4L) Protein expression was analyzed by Western blotting in EpEX-His (50 nM) treated HCT116 cells after treatment with or without 2 μM GSK3β inhibitor (BIO) for 24 h. Quantification of the normalized protein expression in the right panel.
FIGS. 5A to 5I. EpEX promotes Snail protein stability through inhibition of ubiquitination-mediated proteasomal degradation. (FIG. 5A) The gene expression of EMT markers and regulators was detected by qRT-PCR in Wild-type (WT) or EpCAM knockout (KO) of HCT116 and HT29 cells. (FIG. 5B) Stability of Snail protein in WT or KO of HCT116 cells. Cells were treated with cyclohexamide (CHX) 100 μg/ml at the indicated intervals and subjected to Western blotting. (FIG. 5C) The protein expression of Snail was analyzed in WT or KO HCT116 cells by treating with or without […] MG132 (proteasome inhibitor) for 6 h, followed by Western blotting. (FIG. 5D) WT or KO HCT116 cells were treated with 10 μM MG132 for 6 h before cell collection. The lysates were subjected to immunoprecipitation using anti-Snail antibody and input. Western blotting was performed with the indicated antibodies to detect ubiquitinated Snail protein. (FIG. 5E) Stability of Snail protein in HCT116 cells after EpEX (50 nM) treatment for 24 h. Cells were treated with cyclohexamide (CHX; 100 μg/ml) for the indicated intervals and then subjected to Western blotting. (FIG. 5F) Expression of the gene encoding SNAIL was detected by qRT-PCR in HCT116 cells after EpEX (50 nM) treatment for 24 h. (FIG. 5G) The protein expression of Snail in HCT116 was analyzed cells by Western blotting after EpEX (50 nM) treatment for 24 h, and treatment with or without 10 μM MG132 (proteasome inhibitor) for 6 h. […]

[1] = LY294002 25 μM, U0126 20 μM or PF-562271 10 μM 1 h before 50 nM EpEX-His for 24 min, FIG. 4J
[2] = SU 10 μM 1 h, then EpEX-His 50 nM 24 h, FIG. 4I

| SMILES | EpEX-mediated GSK3β activity [1] | EpEX-mediated Snail protein expression [1] | EpEX-induced active β-catenin and Snail protein expression [2] | EpEX-mediated GSK3β activity [2] |
| --- | --- | --- | --- | --- |
| N#CC(=C(/N)Sc1ccccc1N)/C(C#N)=C(\N)Sc1ccccc1N [U0126] | attenuate EpEX-mediated GSK3β activity | attenuate |  |  |
| CN(c1ncccc1CNc1nc(Nc2ccc3c(c2)CC(=O)N3)ncc1C(F)(F)F)S(C)(=O)=O [PF-562271] | attenuate EpEX-mediated GSK3β activity | attenuate |  |  |
| Cc1[nH]c(C=C2C(=O)Nc3ccc(S(=O)(=O)N(C)c4cccc(Cl)c4)cc32)c(C)c1C(=O)N1CCN(C)CC1 (stereo in doubt) [SU11274, (3Z)-N-(3-Chlorophenyl)-3-({3,5-dimethyl-4-[(4-methylpiperazin-1-yl)carbonyl]-1H-pyrrol-2-yl}methylene)-N-methyl-2-oxo-2,3-dihydro-1H-indole-5-sulfonamide] |  |  | abolish EpEX-induced active β-catenin and Snail protein expression | attenuate EpEX-mediated GSK3β activity |
